Source: patent US6617314B2, “Injectable formulations of avermectins and milbemycins” (Bayer Aktiengesellschaft, priority 1996, dated 2003)

Assay: solubility of ivermectin in solvents
Type: physicochemical
Excerpt: The solubility of ivermectin in benzyl alcohol is >40% by weight and in castor oil ˜4% by weight.

For 22,23-dihydroavermectin B1 [ivermectin], the “solubility in benzyl alcohol” value (solvent benzyl alcohol) was > 40 % by weight and the “solubility in castor oil” value (solvent castor oil) was ~4 % by weight.
